Source: ChEMBL document CHEMBL4507292 (2021)

Key:
[1] = target: Wee1-like protein kinase (Homo sapiens) (UniProt P30291); conditions: Compound concentration 1000.0 nM
[2] = target: Alpha-1B adrenergic receptor (Homo sapiens) (UniProt P35368); conditions: Compound concentration 10.0 uM
[3] = target: Serine/threonine-protein kinase BRSK1 (Homo sapiens) (UniProt Q8TDC3); conditions: Compound concentration 1000.0 nM
[4] = target: Serine/threonine-protein kinase 4 (Homo sapiens) (UniProt Q13043); conditions: Compound concentration 1000.0 nM
[5] = target: Wee1-like protein kinase 2 (Homo sapiens) (UniProt P0C1S8); conditions: Compound concentration 1000.0 nM
[6] = target: Receptor-interacting serine/threonine-protein kinase 1 (Homo sapiens) (UniProt Q13546); conditions: Compound concentration 1000.0 nM
[7] = system: Phosphatidylinositol 4,5-bisphosphate 3-kinase catalytic subunit alpha isoform (Homo sapiens), P42336 [H1047L]; conditions: Compound concentration 1000.0 nM
[8] = system: Leucine-rich repeat serine/threonine-protein kinase 2 (Homo sapiens), Q5S007 [G2019S]; conditions: Compound concentration 1000.0 nM
[9] = target: 5-hydroxytryptamine receptor 7 (Homo sapiens) (UniProt P34969); conditions: Compound concentration 10.0 uM
[10] = target: Serine/threonine-protein kinase DCLK1 (Homo sapiens) (UniProt O15075); conditions: Compound concentration 1000.0 nM
[11] = target: Cyclin-dependent kinase-like 5 (Homo sapiens) (UniProt O76039); conditions: Compound concentration 1000.0 nM
[12] = target: Serine/threonine-protein kinase 32C (Homo sapiens) (UniProt Q86UX6); conditions: Compound concentration 1000.0 nM
[13] = system: Proto-oncogene tyrosine-protein kinase receptor Ret (Homo sapiens), P07949 [M918T]; conditions: Compound concentration 1000.0 nM
[14] = target: Atypical kinase COQ8A, mitochondrial (Homo sapiens) (UniProt Q8NI60); conditions: Compound concentration 1000.0 nM
[15] = target: Mitogen-activated protein kinase kinase kinase 2 (Homo sapiens) (UniProt Q9Y2U5); conditions: Compound concentration 1000.0 nM
[16] = target: Calcium/calmodulin-dependent protein kinase type 1B (Homo sapiens) (UniProt Q6P2M8); conditions: Compound concentration 1000.0 nM
[17] = target: Serine/threonine-protein kinase 3 (Homo sapiens) (UniProt Q13188); conditions: Compound concentration 1000.0 nM
[18] = target: Protein kinase C delta type (Homo sapiens) (UniProt Q05655); conditions: Compound concentration 1000.0 nM
[19] = system: Mast/stem cell growth factor receptor Kit (Homo sapiens), P10721 [V559D]; conditions: Compound concentration 1000.0 nM
[20] = system: Fibroblast growth factor receptor 3 (Homo sapiens), P22607 [G697C]; conditions: Compound concentration 1000.0 nM
[21] = target: Maternal embryonic leucine zipper kinase (Homo sapiens) (UniProt Q14680); conditions: Compound concentration 1000.0 nM
[22] = target: Phosphatidylinositol 4,5-bisphosphate 3-kinase catalytic subunit beta isoform (Homo sapiens) (UniProt P42338); conditions: Compound concentration 1000.0 nM
[23] = target: Ribosomal protein S6 kinase alpha-2 (Homo sapiens) (UniProt Q15349); conditions: Compound concentration 1000.0 nM
[24] = target: Serine/threonine-protein kinase Chk1 (Homo sapiens) (UniProt O14757); conditions: Compound concentration 1000.0 nM
[25] = target: Serine/threonine-protein kinase pim-1 (Homo sapiens) (UniProt P11309); conditions: Compound concentration 1000.0 nM
[26] = system: Epidermal growth factor receptor (Homo sapiens), P00533 [UNDEFINED MUTATION]; conditions: Compound concentration 1000.0 nM
[27] = target: Activin receptor type-1-like (Homo sapiens) (UniProt P37023); conditions: Compound concentration 1000.0 nM
[28] = target: Peripheral plasma membrane protein CASK (Homo sapiens) (UniProt O14936); conditions: Compound concentration 1000.0 nM
[29] = target: Dual specificity protein kinase CLK3 (Homo sapiens) (UniProt P49761); conditions: Compound concentration 1000.0 nM
[30] = target: Myosin-IIIa (Homo sapiens) (UniProt Q8NEV4); conditions: Compound concentration 1000.0 nM
[31] = target: Histamine H1 receptor (Homo sapiens) (UniProt P35367); conditions: Compound concentration 10.0 uM
[32] = target: Mitogen-activated protein kinase kinase kinase 9 (Homo sapiens) (UniProt P80192); conditions: Compound concentration 1000.0 nM
[33] = system: Receptor-type tyrosine-protein kinase FLT3 (Homo sapiens), P36888 [UNDEFINED MUTATION]; conditions: Compound concentration 1000.0 nM
[34] = target: Serine/threonine-protein kinase ULK3 (Homo sapiens) (UniProt Q6PHR2); conditions: Compound concentration 1000.0 nM
[35] = target: Glycogen synthase kinase-3 beta (Homo sapiens) (UniProt P49841); conditions: Compound concentration 1000.0 nM
[36] = target: Cyclin-dependent kinase-like 2 (Homo sapiens) (UniProt Q92772); conditions: Compound concentration 1000.0 nM
[37] = target: 5-hydroxytryptamine receptor 1B (Homo sapiens) (UniProt P28222); conditions: Compound concentration 10.0 uM
[38] = target: Platelet-derived growth factor receptor alpha (Homo sapiens) (UniProt P16234); conditions: Compound concentration 1000.0 nM
[39] = target: Calcium/calmodulin-dependent protein kinase type IV (Homo sapiens) (UniProt Q16566); conditions: Compound concentration 1000.0 nM
[40] = target: cAMP-dependent protein kinase catalytic subunit beta (Homo sapiens) (UniProt P22694); conditions: Compound concentration 1000.0 nM
[41] = target: Angiopoietin-1 receptor (Homo sapiens) (UniProt Q02763); conditions: Compound concentration 1000.0 nM
[42] = target: Serine/threonine-protein kinase 16 (Homo sapiens) (UniProt O75716); conditions: Compound concentration 1000.0 nM
[43] = target: Mitogen-activated protein kinase 7 (Homo sapiens) (UniProt Q13164); conditions: Compound concentration 1000.0 nM
[44] = target: Tyrosine-protein kinase Fgr (Homo sapiens) (UniProt P09769); conditions: Compound concentration 1000.0 nM
[45] = target: Serine/threonine-protein kinase Nek5 (Homo sapiens) (UniProt Q6P3R8); conditions: Compound concentration 1000.0 nM

Serine/threonine-protein kinase 3 (Homo sapiens), sequence (Q13188 whole entry): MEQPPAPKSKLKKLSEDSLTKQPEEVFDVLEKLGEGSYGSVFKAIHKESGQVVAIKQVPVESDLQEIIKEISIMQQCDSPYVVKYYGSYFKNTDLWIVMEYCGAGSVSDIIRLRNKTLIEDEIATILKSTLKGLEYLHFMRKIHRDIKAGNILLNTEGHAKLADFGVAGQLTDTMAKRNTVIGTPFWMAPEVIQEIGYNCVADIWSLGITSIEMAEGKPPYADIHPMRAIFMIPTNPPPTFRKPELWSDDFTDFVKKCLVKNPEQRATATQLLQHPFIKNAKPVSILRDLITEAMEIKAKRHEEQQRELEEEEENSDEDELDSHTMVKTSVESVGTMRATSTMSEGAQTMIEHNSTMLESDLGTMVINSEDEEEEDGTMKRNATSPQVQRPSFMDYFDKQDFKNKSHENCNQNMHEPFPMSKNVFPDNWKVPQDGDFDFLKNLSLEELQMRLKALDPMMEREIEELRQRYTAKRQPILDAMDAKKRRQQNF
Serine/threonine-protein kinase 16 (Homo sapiens), sequence (O75716 whole entry): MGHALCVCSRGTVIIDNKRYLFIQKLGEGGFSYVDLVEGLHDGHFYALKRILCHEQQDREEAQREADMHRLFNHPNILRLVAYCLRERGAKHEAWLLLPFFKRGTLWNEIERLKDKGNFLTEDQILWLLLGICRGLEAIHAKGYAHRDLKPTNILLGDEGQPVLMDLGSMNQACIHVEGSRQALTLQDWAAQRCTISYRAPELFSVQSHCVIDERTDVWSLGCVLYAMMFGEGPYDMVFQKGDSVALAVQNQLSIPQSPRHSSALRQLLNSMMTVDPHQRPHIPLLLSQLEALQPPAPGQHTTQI
Serine/threonine-protein kinase BRSK1 (Homo sapiens), sequence (Q8TDC3 whole entry): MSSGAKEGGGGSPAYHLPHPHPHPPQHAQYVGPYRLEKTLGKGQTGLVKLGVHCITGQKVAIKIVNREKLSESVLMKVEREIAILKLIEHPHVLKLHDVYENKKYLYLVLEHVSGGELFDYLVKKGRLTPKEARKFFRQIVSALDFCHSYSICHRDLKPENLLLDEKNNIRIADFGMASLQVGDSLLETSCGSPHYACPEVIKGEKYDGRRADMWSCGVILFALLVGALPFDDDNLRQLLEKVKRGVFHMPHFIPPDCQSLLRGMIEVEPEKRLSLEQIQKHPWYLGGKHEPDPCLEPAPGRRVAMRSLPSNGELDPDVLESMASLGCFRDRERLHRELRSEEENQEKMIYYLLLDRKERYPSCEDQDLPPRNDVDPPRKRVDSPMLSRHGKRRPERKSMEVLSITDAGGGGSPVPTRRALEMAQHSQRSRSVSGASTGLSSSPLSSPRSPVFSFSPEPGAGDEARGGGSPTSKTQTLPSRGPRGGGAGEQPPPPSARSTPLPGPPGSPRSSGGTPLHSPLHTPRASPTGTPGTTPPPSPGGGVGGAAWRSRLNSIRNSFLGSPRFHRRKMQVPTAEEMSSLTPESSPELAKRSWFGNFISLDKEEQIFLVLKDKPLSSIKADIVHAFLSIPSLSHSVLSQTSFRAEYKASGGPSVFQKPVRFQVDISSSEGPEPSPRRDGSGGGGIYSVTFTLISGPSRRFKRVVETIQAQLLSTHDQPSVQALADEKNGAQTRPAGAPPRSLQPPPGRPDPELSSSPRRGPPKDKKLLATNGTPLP
Wee1-like protein kinase (Homo sapiens), sequence (P30291 whole entry, looked up): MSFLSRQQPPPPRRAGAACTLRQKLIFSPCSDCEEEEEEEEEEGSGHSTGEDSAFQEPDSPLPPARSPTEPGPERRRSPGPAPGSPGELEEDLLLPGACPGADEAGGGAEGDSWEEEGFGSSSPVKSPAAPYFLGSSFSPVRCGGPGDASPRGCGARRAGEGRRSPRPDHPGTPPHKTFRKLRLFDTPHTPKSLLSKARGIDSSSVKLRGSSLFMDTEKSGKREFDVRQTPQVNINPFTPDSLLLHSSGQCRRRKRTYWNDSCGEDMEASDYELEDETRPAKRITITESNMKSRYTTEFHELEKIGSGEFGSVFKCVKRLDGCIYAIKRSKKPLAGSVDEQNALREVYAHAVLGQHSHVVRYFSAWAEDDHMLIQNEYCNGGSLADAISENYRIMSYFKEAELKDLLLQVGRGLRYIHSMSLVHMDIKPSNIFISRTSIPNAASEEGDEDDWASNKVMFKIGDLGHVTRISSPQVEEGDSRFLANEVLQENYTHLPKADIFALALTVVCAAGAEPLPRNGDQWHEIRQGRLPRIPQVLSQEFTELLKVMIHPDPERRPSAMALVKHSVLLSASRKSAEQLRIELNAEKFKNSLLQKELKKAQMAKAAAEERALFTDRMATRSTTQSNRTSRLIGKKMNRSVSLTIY
Calcium/calmodulin-dependent protein kinase type IV (Homo sapiens), sequence (Q16566 whole entry): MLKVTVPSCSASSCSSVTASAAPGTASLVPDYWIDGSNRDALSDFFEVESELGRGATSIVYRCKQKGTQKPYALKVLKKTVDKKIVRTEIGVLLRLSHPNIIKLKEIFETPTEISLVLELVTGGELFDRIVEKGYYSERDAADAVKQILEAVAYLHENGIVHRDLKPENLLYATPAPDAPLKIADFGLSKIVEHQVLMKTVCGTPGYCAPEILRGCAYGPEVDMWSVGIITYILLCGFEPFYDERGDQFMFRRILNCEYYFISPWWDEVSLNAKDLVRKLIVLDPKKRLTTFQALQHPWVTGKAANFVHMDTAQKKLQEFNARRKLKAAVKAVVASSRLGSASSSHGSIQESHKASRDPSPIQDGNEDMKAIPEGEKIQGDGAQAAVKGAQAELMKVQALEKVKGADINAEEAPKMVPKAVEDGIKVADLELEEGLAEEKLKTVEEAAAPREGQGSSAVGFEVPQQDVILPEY
Serine/threonine-protein kinase 32C (Homo sapiens), sequence (Q86UX6 whole entry): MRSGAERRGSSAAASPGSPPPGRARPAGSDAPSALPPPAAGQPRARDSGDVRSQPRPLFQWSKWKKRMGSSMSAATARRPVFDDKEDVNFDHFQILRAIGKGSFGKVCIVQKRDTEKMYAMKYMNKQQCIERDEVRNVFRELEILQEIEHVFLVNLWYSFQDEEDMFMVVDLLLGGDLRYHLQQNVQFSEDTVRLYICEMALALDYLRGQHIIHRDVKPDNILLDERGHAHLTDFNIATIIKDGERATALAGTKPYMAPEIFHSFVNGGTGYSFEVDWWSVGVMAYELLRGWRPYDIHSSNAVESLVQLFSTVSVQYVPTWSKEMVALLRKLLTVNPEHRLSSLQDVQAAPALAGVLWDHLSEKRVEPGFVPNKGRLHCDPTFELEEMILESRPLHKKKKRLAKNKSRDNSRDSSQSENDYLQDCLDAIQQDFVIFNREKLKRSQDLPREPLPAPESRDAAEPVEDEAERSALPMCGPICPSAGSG
Serine/threonine-protein kinase DCLK1 (Homo sapiens), sequence (O15075 whole entry): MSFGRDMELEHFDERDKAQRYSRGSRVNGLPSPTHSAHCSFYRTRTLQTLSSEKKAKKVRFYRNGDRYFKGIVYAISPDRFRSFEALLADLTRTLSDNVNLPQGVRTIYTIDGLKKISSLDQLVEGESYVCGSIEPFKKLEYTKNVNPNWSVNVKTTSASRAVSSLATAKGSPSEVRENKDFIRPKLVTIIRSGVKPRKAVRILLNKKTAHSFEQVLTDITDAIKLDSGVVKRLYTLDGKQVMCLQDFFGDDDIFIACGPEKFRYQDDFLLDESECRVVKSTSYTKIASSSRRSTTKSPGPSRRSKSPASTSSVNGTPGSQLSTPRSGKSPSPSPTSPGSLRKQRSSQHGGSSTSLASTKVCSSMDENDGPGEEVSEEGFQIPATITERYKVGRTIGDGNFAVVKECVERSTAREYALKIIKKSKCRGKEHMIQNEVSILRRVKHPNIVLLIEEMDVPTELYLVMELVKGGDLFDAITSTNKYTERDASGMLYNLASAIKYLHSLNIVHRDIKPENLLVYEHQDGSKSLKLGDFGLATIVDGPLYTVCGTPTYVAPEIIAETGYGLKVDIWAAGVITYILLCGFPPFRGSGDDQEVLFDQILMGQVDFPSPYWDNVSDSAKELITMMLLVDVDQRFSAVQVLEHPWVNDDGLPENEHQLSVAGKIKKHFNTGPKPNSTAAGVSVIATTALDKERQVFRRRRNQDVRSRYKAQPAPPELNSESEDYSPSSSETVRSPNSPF
Calcium/calmodulin-dependent protein kinase type 1B (Homo sapiens), sequence (Q6P2M8 whole entry): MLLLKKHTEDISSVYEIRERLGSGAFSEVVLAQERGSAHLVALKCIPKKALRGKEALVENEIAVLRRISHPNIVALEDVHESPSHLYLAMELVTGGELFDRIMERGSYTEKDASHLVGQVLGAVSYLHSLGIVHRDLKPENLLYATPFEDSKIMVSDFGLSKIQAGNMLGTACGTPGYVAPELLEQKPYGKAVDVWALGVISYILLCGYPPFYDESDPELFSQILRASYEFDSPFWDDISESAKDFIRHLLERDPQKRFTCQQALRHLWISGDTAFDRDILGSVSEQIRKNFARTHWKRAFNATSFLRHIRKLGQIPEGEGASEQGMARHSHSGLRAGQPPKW
Mitogen-activated protein kinase kinase kinase 2 (Homo sapiens), sequence (Q9Y2U5 whole entry): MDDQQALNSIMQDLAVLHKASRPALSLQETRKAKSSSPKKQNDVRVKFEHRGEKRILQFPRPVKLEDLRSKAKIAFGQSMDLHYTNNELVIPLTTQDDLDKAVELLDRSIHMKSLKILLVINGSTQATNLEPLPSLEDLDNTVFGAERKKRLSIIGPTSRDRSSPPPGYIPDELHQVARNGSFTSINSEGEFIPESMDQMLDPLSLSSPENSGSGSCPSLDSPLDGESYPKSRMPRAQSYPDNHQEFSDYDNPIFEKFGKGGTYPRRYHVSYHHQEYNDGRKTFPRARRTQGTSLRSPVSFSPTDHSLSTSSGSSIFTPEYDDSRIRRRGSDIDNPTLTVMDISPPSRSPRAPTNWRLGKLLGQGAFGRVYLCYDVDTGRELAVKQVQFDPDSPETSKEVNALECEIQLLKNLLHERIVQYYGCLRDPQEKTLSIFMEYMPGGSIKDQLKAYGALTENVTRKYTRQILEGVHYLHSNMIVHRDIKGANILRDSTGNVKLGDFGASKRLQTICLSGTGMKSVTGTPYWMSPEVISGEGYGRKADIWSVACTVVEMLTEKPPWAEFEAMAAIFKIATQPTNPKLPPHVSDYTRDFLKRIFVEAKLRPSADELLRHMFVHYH

Cc1c(C(=O)O)cc(-c2ccc(C3CCNCC3)cc2)c2ccc(-c3ccc(C(F)(F)F)cc3)cc12 [PPTN-NC]
residual activity [1]: 80%
inhibition [2]: 57.4%
residual activity [3]: 100%
residual activity [4]: 95%
residual activity [5]: 100%
residual activity [6]: 100%
residual activity [7]: 100%
residual activity [8]: 100%
inhibition [9]: -3.66%
residual activity [10]: 81%
residual activity [11]: 100%
residual activity [12]: 100%
residual activity [13]: 100%
residual activity [14]: 100%
residual activity [15]: 100%
residual activity [16]: 100%
residual activity [17]: 100%
residual activity [18]: 100%
residual activity [19]: 100%
residual activity [20]: 100%
residual activity [21]: 100%
residual activity [22]: 100%
residual activity [23]: 100%
residual activity [24]: 100%
residual activity [25]: 100%
residual activity [26]: 100%
residual activity [27]: 100%
residual activity [28]: 100%
residual activity [29]: 100%
residual activity [30]: 100%
inhibition [31]: 12.6%
residual activity [32]: 92%
residual activity [33]: 100%
residual activity [34]: 95%
residual activity [35]: 100%
residual activity [36]: 100%
inhibition [37]: 14.4%
residual activity [38]: 100%
residual activity [39]: 100%
residual activity [40]: 84%
residual activity [41]: 100%
residual activity [42]: 100%
residual activity [43]: 100%
residual activity [44]: 100%
residual activity [45]: 100%

O=C(O)c1cc(-c2ccc(C3CCNCC3)cc2)c2ccc(-c3ccc(C(F)(F)F)cc3)cc2c1 [PPTN]
residual activity [1]: 98%
inhibition [2]: 85.8%
residual activity [3]: 100%
residual activity [4]: 98%
residual activity [5]: 100%
residual activity [6]: 100%
residual activity [7]: 100%
residual activity [8]: 100%
inhibition [9]: 17.8%
residual activity [10]: 84%
residual activity [11]: 100%
residual activity [12]: 100%
residual activity [13]: 92%
residual activity [14]: 100%
residual activity [15]: 100%
residual activity [16]: 100%
residual activity [17]: 100%
residual activity [18]: 100%
residual activity [19]: 100%
residual activity [20]: 100%
residual activity [21]: 98%
residual activity [22]: 100%
residual activity [23]: 100%
residual activity [24]: 100%
residual activity [25]: 100%
residual activity [26]: 100%
residual activity [27]: 100%
residual activity [28]: 100%
residual activity [29]: 100%
residual activity [30]: 100%
inhibition [31]: 21.6%
residual activity [32]: 100%
residual activity [33]: 100%
residual activity [34]: 100%
residual activity [35]: 100%
residual activity [36]: 100%
inhibition [37]: 20.4%
residual activity [38]: 100%
residual activity [39]: 100%
residual activity [40]: 100%
residual activity [41]: 100%
residual activity [42]: 100%
residual activity [43]: 100%
residual activity [44]: 100%
residual activity [45]: 100%
